According to patent US12077503B2, “Substituted cyclic amides and their use as herbicides” (FMC CORPORATION, priority 2015, dated 2024):
Like-named read-outs stand apart in the source and are kept apart here.

Tests used:
Format in all cases: in vivo
[1] = test system: ducksalad (Heteranthera limosa); assay: Test B flooded paddy test; conditions: Heteranthera limosa, 250 g ai/ha, Flood, read-out: Ducksalad plant response rating
In short: (§1)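 Greenhouse paddy pots with 2-leaf stage plants received compound by direct addition to floodwater 3 cm deep, kept at that level. Scored visually at 13–15 d versus controls (0 no effect; 100 complete control).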

[2] = test system: barnyardgrass (Echinochloa crus-galli); assay: Test B flooded paddy test; conditions: Echinochloa crus-galli, 250 g ai/ha, Flood, read-out: Barnyardgrass plant response rating
In short: as §1

[3] = test system: sedge, umbrella (small-flower umbrella sedge, Cyperus difformis); assay: Test B flooded paddy test; conditions: Cyperus difformis, 250 g ai/ha, Flood, read-out: Sedge, Umbrella plant response rating
In short: as §1

rice (Oryra sativa) = assay: Test B flooded paddy test; conditions: Oryza sativa, 250 g ai/ha, Flood, read-out: Rice plant response rating
In short: as §1

[4] = test system: pigweed (Amaranthus retroflexus); assay: Test A preemergence; conditions: Amaranthus retroflexus, pre-emergence, 240 h; for pest or weed control at 125 g/ha: 125 g ai/ha; for pest or weed control at 500 g/ha: 500 g ai/ha
[5] = test system: wheat (Triticum aestivum); assay: Test A postemergence; conditions: Triticum aestivum, post-emergence, 240 h, postemergence; for plant injury at 125 g/ha: 125 g ai/ha
In short: (§2)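 Preemergence directed soil spray on seeded pots, or postemergence application to plants 2–10 cm, one- to two-leaf. Solvent mixture non-phytotoxic, with surfactant. Scored ~10 d later, visually, 0–100 vs untreated.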

Kochia (Kochia scoparia) = assay: Test A postemergence; conditions: Bassia scoparia, post-emergence, 240 h, postemergence; for pest or weed control at 125 g/ha: 125 g ai/ha
In short: as §2

[6] = test system: ragweed (common ragweed, Ambrosia elatior); assay: Test A postemergence; conditions: Ambrosia artemisiifolia, post-emergence, 240 h, postemergence; for pest or weed control at 125 g/ha: 125 g ai/ha
In short: as §2

corn (Zea mays) = assay: Test A postemergence; conditions: Zea mays, post-emergence, 240 h, postemergence; for plant injury at 125 g/ha: 125 g ai/ha
In short: as §2

[7] = test system: Galium (catchweed bedstraw, Galium aparine); assay: Test A postemergence; conditions: Galium, post-emergence, 240 h, postemergence; for pest or weed control at 125 g/ha: 125 g ai/ha
In short: as §2

[8] = test system: barnyardgrass (Echinochloa crus-galli); assay: Test A postemergence; conditions: Echinochloa crus-galli, post-emergence, 240 h, postemergence; for pest or weed control at 125 g/ha: 125 g ai/ha
In short: as §2

[9] = test system: giant foxtail (Setaria faberii); assay: Test A postemergence; conditions: Setaria faberi, post-emergence, 240 h, postemergence; for pest or weed control at 125 g/ha: 125 g ai/ha
In short: as §2

[10] = test system: ryegrass, Italian (Italian ryegrass, Lolium multiflorum); assay: Test A postemergence; conditions: Lolium multiflorum, post-emergence, 240 h, postemergence; for pest or weed control at 125 g/ha: 125 g ai/ha
In short: as §2

[11] = test system: blackgrass (Alopecurus myosuroides); assay: Test A postemergence; conditions: Alopecurus myosuroides, post-emergence, 240 h, postemergence; for pest or weed control at 125 g/ha: 125 g ai/ha
In short: as §2

[12] = test system: pigweed (Amaranthus retroflexus); assay: Test A postemergence; conditions: Amaranthus retroflexus, post-emergence, 240 h, postemergence; for pest or weed control at 125 g/ha: 125 g ai/ha
In short: as §2

[13] = 0 to 100 scale where 0 is no effect and 100 is complete control
[14] = preemergence, 0 to 100 scale where 0 is no effect and 100 is complete control, read-out: Pigweed plant response rating
[15] = scale of 0 to 100 where 0 is no effect and 100 is complete control

Cc1c(F)cccc1NC(=O)[C@H]1C(=O)NC[C@@H]1c1cc(F)c(F)c(F)c1 [Compound 1125]
pest or weed control at 250 g/ha [1, 13]: 100%
pest or weed control at 250 g/ha [2, 13]: 70%
pest or weed control at 250 g/ha [3, 13]: 0%
pest or weed control at 250 g/ha (rice (Oryra sativa); [13]): 0%
pest or weed control at 125 g/ha ([4]; preemergence, 0 to 100 scale where 0 is no effect and 100 is complete control, approx. 10 d, read-out: Pigweed plant response rating): 0%
pest or weed control at 500 g/ha [4, 14]: 40%
plant injury at 125 g/ha ([5]; visual injury on 0 to 100 scale (0 no effect, 100 complete control), approx. 10 d, read-out: Wheat plant response rating): 30%
plant injury at 500 g/ha ([5]; 500 g ai/ha, 0 to 100 scale, 0 is no effect, 100 is complete control, read-out: Wheat plant response rating): 40%
pest or weed control at 125 g/ha (Kochia (Kochia scoparia); visual injury on 0 to 100 scale (0 no effect, 100 complete control), approx. 10 d, read-out: Kochia plant response rating): 0%
pest or weed control at 500 g/ha (Kochia (Kochia scoparia); 500 g ai/ha, 0 to 100 scale, 0 is no effect, 100 is complete control, read-out: Kochia plant response rating): 40%
pest or weed control at 125 g/ha ([6]; visual injury on 0 to 100 scale (0 no effect, 100 complete control), approx. 10 d, read-out: Ragweed plant response rating): 0%
pest or weed control at 500 g/ha ([6]; 500 g ai/ha, 0 to 100 scale, 0 is no effect, 100 is complete control, read-out: Ragweed plant response rating): 0%
plant injury at 125 g/ha (corn (Zea mays); visual injury on 0 to 100 scale (0 no effect, 100 complete control), approx. 10 d, read-out: Corn plant response rating): 30%
plant injury at 500 g/ha (corn (Zea mays); 500 g ai/ha, 0 to 100 scale, 0 is no effect, 100 is complete control, read-out: Corn plant response rating): 60%
pest or weed control at 125 g/ha ([7]; visual injury on 0 to 100 scale (0 no effect, 100 complete control), approx. 10 d, read-out: Galium plant response rating): 40%
pest or weed control at 500 g/ha ([7]; 500 g ai/ha, 0 to 100 scale, 0 is no effect, 100 is complete control, read-out: Galium plant response rating): 50%
pest or weed control at 125 g/ha ([8]; visual injury on 0 to 100 scale (0 no effect, 100 complete control), approx. 10 d, read-out: Barnyardgrass plant response rating): 90%
pest or weed control at 500 g/ha ([8]; 500 g ai/ha, 0 to 100 scale, 0 is no effect, 100 is complete control, read-out: Barnyardgrass plant response rating): 90%
pest or weed control at 125 g/ha ([9]; visual injury on 0 to 100 scale (0 no effect, 100 complete control), approx. 10 d, read-out: Foxtail, Giant plant response rating): 90%
pest or weed control at 500 g/ha ([9]; 500 g ai/ha, 0 to 100 scale, 0 is no effect, 100 is complete control, read-out: Foxtail, Giant plant response rating): 90%
pest or weed control at 125 g/ha ([10]; visual injury on 0 to 100 scale (0 no effect, 100 complete control), approx. 10 d, read-out: Ryegrass, Italian plant response rating): 0%
pest or weed control at 500 g/ha ([10]; 500 g ai/ha, 0 to 100 scale, 0 is no effect, 100 is complete control, read-out: Ryegrass, Italian plant response rating): 60%
pest or weed control at 125 g/ha ([11]; visual injury on 0 to 100 scale (0 no effect, 100 complete control), approx. 10 d, read-out: Blackgrass plant response rating): 40%
pest or weed control at 500 g/ha ([11]; 500 g ai/ha, 0 to 100 scale, 0 is no effect, 100 is complete control, read-out: Blackgrass plant response rating): 50%
pest or weed control at 125 g/ha ([12]; visual injury on 0 to 100 scale (0 no effect, 100 complete control), approx. 10 d, read-out: Pigweed plant response rating): 0%
pest or weed control at 500 g/ha ([12]; 500 g ai/ha, 0 to 100 scale, 0 is no effect, 100 is complete control, read-out: Pigweed plant response rating): 0%

COc1c(F)ccc([C@H]2CN(C)C(=O)[C@@H]2C(=O)Nc2ccccc2S(C)(=O)=O)c1Cl [Compound 897]
pest or weed control at 250 g/ha [1, 15]: 45%
pest or weed control at 250 g/ha [2, 15]: 45%
pest or weed control at 250 g/ha [3, 15]: 0%
pest or weed control at 250 g/ha (rice (Oryra sativa); [15]): 0%
pest or weed control at 125 g/ha [4, 14]: 30%
pest or weed control at 500 g/ha ([4]; Preemergence, visual injury vs untreated controls after approximately 10 d, read-out: Pigweed plant response rating (0 to 100 scale where 0 is no effect and 100 is complete control)): 60%
plant injury at 125 g/ha ([5]; visual injury rating after approximately 10 d, read-out: Wheat plant response rating (0 to 100 scale, 0 no effect, 100 complete control)): 30%
pest or weed control at 125 g/ha (Kochia (Kochia scoparia); visual injury rating after approximately 10 d, read-out: Kochia plant response rating (0 to 100 scale, 0 no effect, 100 complete control)): 30%
pest or weed control at 125 g/ha ([6]; visual injury rating after approximately 10 d, read-out: Ragweed plant response rating (0 to 100 scale, 0 no effect, 100 complete control)): 20%
plant injury at 125 g/ha (corn (Zea mays); visual injury rating after approximately 10 d, read-out: Corn plant response rating (0 to 100 scale, 0 no effect, 100 complete control)): 30%
pest or weed control at 125 g/ha ([7]; visual injury rating after approximately 10 d, read-out: Galium plant response rating (0 to 100 scale, 0 no effect, 100 complete control)): 40%
pest or weed control at 125 g/ha ([8]; visual injury rating after approximately 10 d, read-out: Barnyardgrass plant response rating (0 to 100 scale, 0 no effect, 100 complete control)): 90%
pest or weed control at 125 g/ha ([9]; visual injury rating after approximately 10 d, read-out: Foxtail, Giant plant response rating (0 to 100 scale, 0 no effect, 100 complete control)): 80%
pest or weed control at 125 g/ha ([10]; visual injury rating after approximately 10 d, read-out: Ryegrass, Italian plant response rating (0 to 100 scale, 0 no effect, 100 complete control)): 20%
pest or weed control at 125 g/ha ([11]; visual injury rating after approximately 10 d, read-out: Blackgrass plant response rating (0 to 100 scale, 0 no effect, 100 complete control)): 30%
pest or weed control at 125 g/ha ([12]; visual injury rating after approximately 10 d, read-out: Pigweed plant response rating (0 to 100 scale, 0 no effect, 100 complete control)): 0%
